In EP0028959A1, “5,8,13,13a-Tetrahydro-6H-dibenzo(a,g)quinolizine derivatives, process for their preparation and pharmaceutical compositions containing them” (U.R.P.H.A., priority 1979, dated 1981):
Read-outs that look alike come from different tables or passages of the source.

Tests used:
[1] = test system: effets hypertenseurs de l'adrénaline chez le chien; conditions: Raymond Hamet 1952, 1953; cited from earlier work
muscle lisse = conditions: Raymond Hamet 1952, 1953; cited from earlier work
[2] = Acute toxicity, DL 50 in mice (Litchfield and Wilcoxon method); type: in vivo, souris; conditions: mouse, in vivo, DL 50 and its upper and lower limits for p = 0,05
Experimental: (§1) La DL 50 a été déterminée chez la souris par la méthode de LITCHFIELD et WILCOXON (J. Pharmacol. 1949 96, 99-113). Les dérivés étudiés ont été administrés en solution aqueuse additionnée de 7% de diméthylformamide, gavage oesophagien de 0,4 ml/20g) à des souris mâles pesant de 20 à 25g.
(§2) C'est pourquoi, il a été comparé au STB 0 par injection intrapéritonéale (même solution et même volume injectés par voie orale).

patients hypertendus = conditions: Faquet, Lisle et Combaz 1954; cited from earlier work
artère caudale distale = test: Inhibition of phenylephrine-induced contraction of isolated rat caudal artery, distal segment; type: cell-based; conditions: read-out: EFFET SUR L'ARTERE CAUDALE DE RAT I50 SEGMENT DISTAL
Source text: (§3) L'inhibition des réponses contractiles maximales provoquées par la Phényléphrine ([…]) a été étudiée sur l'aorte isolée du rat préparée suivant la technique décrite par VALETTE,G. et BA MUOI, N. (Ann. Pharm. franc. 1962, 20, 557-582) et sur le segment proximal et le segment distal de l'artère caudale suivant la technique-décrite par WORCEL, M. (J. Pharmacol. Exp. Therm. 1978, 207, 210-330). Dans tous les cas, les dérivés STB se sont comportés comme de puissants antagonistes non compétitifs de la Phényléphrine. Leurs concentrations inhibitrices 50% (ID50) sont indiquées dans le tableau 2. Comme c'est le cas pour d'autres vasodilatateurs (comme l'Hydralazine), l'- artère caudale est plus sensible que l'aorte à l'effet inhibiteur des dérivés étudiés.

artère caudale proximale = test: Inhibition of phenylephrine-induced contraction of isolated rat caudal artery, proximal segment; type: cell-based; conditions: read-out: EFFET SUR L'ARTERE CAUDALE DE RAT I50 SEGMENT PROXIMAL
Source text: as §3

[3] = test system: oreillette droite isolée de cobaye; test: Frequency of spontaneously beating isolated guinea pig right atrium; type: cell-based; conditions: for Inhibition % du rythme de base / Inhibition % du rythme maximal en présence d'isoprotérénol: mean of 3 experiments ± erreur type; for effet sur la fréquence: result in words, comment on tableau 3
Source text: (§4) Les effets sur le rythme et sur la concentration cardiaques ont été respectivement mis en évidence sur l'oreillette droite battant spontanément et sur l'oreillette gauche stimulée électriquement, suivant la technique décrite par GROSSMANN A., FURCHGOTT R. (J. Pharmacol. Exp. Ther. 1964, 143, 107-119).

aorte isolée du rat = test: Inhibition of phenylephrine-induced contraction of isolated rat aorta; type: cell-based; conditions: read-out: EFFET SUR L'AORTE DE RAT I50
Source text: as §3

[4] = test system: oreillette gauche isolée de cobaye; test: Contractile force of electrically stimulated isolated guinea pig left atrium; type: cell-based; conditions: for effet sur la force contractile: result in words, comment on tableau 3
Source text: as §4

[5] = test system: rat anesthésié par l' "Inactine"; test: Cardiac output (thermodilution), arterial pressure and peripheral vascular resistance in Inactine-anaesthetised rats; type: in vivo; parameters: Volume éjection systolique: unit not given here; conditions: Après: 45 minutes after 15 mg.kg^-1 i.p., n=7, mean ± erreur type
Experimental: Les effets sur le débit cardiaque et la résistance vasculaire périphérique ont été mesurés chez le rat anesthésié par l' "Inactine" (70 mg.kg^-1), voie intrapéritonéale). Le débit a été mesuré par thermodilution suivant la technique décrite par HONDAS et al (Path. Biol. 1979, 17 1069-1078). La pression moyenne a été enregistrée à l'aide d'un cathéter placé dans l'artère fémorale du rat. Les mesures ont été faites avant et entre 45 et 60 minutes après l'administration intra-péritonéale des anti-hypertenseurs. Chaque chiffre expérimental représente la moyenne de trois mesures successives. Les résultats, donnés à titre d'exemple dans le tableau 1, ci-après,en ce qui concerne le STB 6, montrent que l'administration de l'anti-hypertenseur provoque une importante chute de pression artérielle imputable à une diminution marquée de la résistance vasculaire périphérique et sans variation significative du débit et du rythme cardiaques, ni du volume d'éjection systolique.

souris = test: Acute toxicity, DL 50 in mice (Litchfield and Wilcoxon method); type: in vivo; conditions: result in words, comment on tableau 4
Experimental: as §1, §2

[6] = Solubility in the dosing solution (aqueous solution with 7% dimethylformamide); type: physicochemical; conditions: reason why oral DL 50 could not be determined; result in words
Experimental: as §1, §2

[7] = contraction by phényléphrine 5.10^-6M, mean of at least 3 experiments ± erreur type
[8] = contraction by phényléphrine 1.10^-6M, mean of at least 3 experiments ± erreur type
[9] = contraction by phényléphrine 1.10^-5M, mean of at least 3 experiments ± erreur type
[10] = Concentration 5.10^-5 mole/l, stimulated at 2,5 Hz, mean of 3 experiments ± erreur type, read-out: Variation % de la force contractile de base
[11] = read-out: Variation % de la force contractile de base

| SMILES | LD50 ([2]; po, per os, male mice 20 à 25g) [mg/kg] | LD50 ([2]; ip.) [mg/kg] | IC50 (artère caudale distale; [7]) [nM] | IC50 (artère caudale proximale; [8]) [nM] | Inhibition % du rythme de base ([3]; Concentration 5.10^-5 mole/l) [%] | Inhibition % du rythme maximal en présence d'isoprotérénol ([3]; Concentration 5.10^-5 mole/l) | effet sur la fréquence [3] | IC50 (aorte isolée du rat; [9]) [nM] | activation at 50 µM [4, 10] [%] | effet sur la force contractile [4] | toxicité aiguë, comparison (souris) | IC50 (artère caudale distale) [nM] | IC50 (artère caudale proximale) [nM] | IC50 (aorte isolée du rat) [nM] | further results |
| --- | --- | --- | --- | --- | --- | --- | --- | --- | --- | --- | --- | --- | --- | --- | --- |
| c1ccc2c(c1)CC1c3ccccc3CCN1C2 (stereo not drawn) [STB0, 5,8,13,13a-tétrahydro-6H-dibenzo [a,g] quinolizine, reference compound] | 464 | 262 | 1300 | 300 | 46 ± 5 | 38 ± 6% | déprime fortement | 13000 | -47 | déprime fortement | – | – | – | – | effets hypertenseurs de l'adrénaline [1]: inverse les effets hypertenseurs de l'adrénaline; contraction du muscle lisse provoquée par l'ion K^+ (muscle lisse): inhibe la contraction du muscle lisse; action hypotensive (patients hypertendus): exerce une action hypotensive |
| Oc1ccc2c(c1)CCN1Cc3ccccc3CC21 (stereo not drawn) [STB4, 3-hydroxy-5,8,13,13a-tétrahydro-6H-dibenzo [a, g] quinolizine] | 464 | – | 1900 | 1000 | – | – | subsistent de façon moins marquée | 26000 | – | ne diminuent pas la force contractile | – | – | – | – | Inhibition % du rythme de base ([3]; Concentration 45.10^-5 mole/l): 13,8 ± 5,8%; Inhibition % du rythme maximal en présence d'isoprotérénol ([3]; Concentration 45.10^-5 mole/l): 28,7 ± 1,8%; Variation % de la force maximale en présence d'isoprotérénol ([4]; Concentration 45.10^-5 mole/l, stimulated at 2,5 Hz, mean of 3 experiments ± erreur type): 0%; activation at 450 µM ([4]; Concentration 45.10^-5 mole/l, stimulated at 2,5 Hz, mean of 3 experiments ± erreur type, read-out: Variation % de la force contractile de base): 0% |
| COc1cc2c(cc1OC)CN1CCc3cc(O)ccc3C1C2 (stereo not drawn) [STB6, 3-hydroxy-10,11-diméthoxy-5,8,13,13a-tétrahydro-6H-dibenzo [a, g] quinolizine] | 275 | – | 2100 | 1100 | 8 ± 5 | 21,6 ± 1,2% | subsistent de façon moins marquée | 59000 | 32 | augmentent fortement la force contractile | le plus toxique | – | – | – | Volume éjection systolique ([5]; n.s., Avant: 0,71 ± 0,04): 0,78 ± 0,035; débit cardiaque (DC) ([5]; n.s., Avant: 237,7 ± 12,9): 293,9 ±18,7 n.s. ml, mn.kg^-1; Rythme ([5]; n.s., Avant: 386 ± 11): 374 ± 12 n.s. systoles/mn; pression artérielle moyenne (PA) ([5]; p≤ 0,01, Avant: 150,2 ± 3,9): ‡‡‡ 89,1 ± 3,3 mmHg; résistance vasculaire périphérique totale (RVPt) ([5]; p≤ 0,01, Avant: 728,9 ± 29,2): ‡‡‡ 412,2 ± 17,8 dynes.mn.cm^-5.kg^-1; Variation % de la force maximale en présence d'isoprotérénol ([4]; Concentration 5.10^-5 mole/l, stimulated at 2,5 Hz, mean of 3 experiments ± erreur type): 0% |
| COc1cc2c(cc1OC)CN1CCc3cc(OC(=O)Cc4ccccc4)ccc3C1C2 (stereo not drawn) [STB52, 3-phénacétyloxy-10,11-diméthoxy-5,8,13,13a tétrahydro-6H-dibenzo [a, g] quinolizine] | 550 | – | – | – | – | – | subsistent de façon moins marquée | – | – | augmentent fortement la force contractile | – | 4300 | 2100 | 51000 | Inhibition % du rythme de base ([3]; Concentration 5.10^-6 mole/l): 14 ± 7%; Inhibition % du rythme maximal en présence d'isoprotérénol ([3]; Concentration 5.10^-6 mole/l): 17 ± 3%; activation at 5 µM [4, 11]: 90% |
| O=C(Cc1ccccc1)Oc1ccc2c(c1)CCN1Cc3ccccc3CC21 (stereo not drawn) [STB69, 3-phénacétyloxy-5,8,13,13a-tétrahydro-6H-dibenzo-[a, g] quinolizine] | > 650 | 378 | – | – | 0 | 12,5 ± 2,7% | pratiquement dépourvu d'action | – | – | pratiquement dépourvu d'action | le moins toxique | 3100 | 1500 | 58000 | solubilité [6]: solubilité insuffisante; activation at 50 µM [4, 11]: 12.6% |
